The record followed here is patent EP0486702A1, “PHENYL 4-GUANIDINOBENZOATE DERIVATIVE, PROCESS FOR PRODUCING THE SAME, AND PROTEASE INHIBITOR CONTAINING THE SAME” (Asahi Kasei Kogyo Kabushiki Kaisha, priority 1990, dated 1991).

For one assay, the target named is plasmin (Homo sapiens, UniProt P00747). Briefly: in vitro plasmin inhibition, substrate Boc-Val-Leu-Lys-7-amido-4-methylcoumalin. Format: biochemical. An excerpt:
(§1) The method disclosed in JP-A-2-101017 was slightly modified and used for the measurement of the function of typical compounds belonging to the compound (I) of the present invention (Compounds 39, 3, 2, 26, 31 and 10) in terms of their in vitro activities to inhibit trypsin, thrombin, plasmin, factor Xa and elastase.
(§2) Substrate used for the enzyme reaction were: benzoyl-Arg-7-amido-4-methylcoumalin for trypsin, Boc-Val-Pro-Arg-7-amido-4-methylcoumalin for thrombin, Boc-Val-Leu-Lys-7-amido-4-methylcoumalin for plasmin, Boc-Ile-Glu-Gly-Arg-7-amido-4-methylcoumalin for factor Xa and methoxysuccinyl-Ala-Ala-Pro-Val-7-amido-4-methylcoumalin for elastase. […] Each enzyme reaction was carried out in 0.2 M Tris-HCl buffer supplemented with 0.02 M CaCl₂ and 0.005% Triton X-100 at pH 8.0 for trypsin, thrombin, plasmin and factor Xa or at pH 7.2 for elastase. Each sample solution to be measured was mixed with each enzyme solution and the reaction mixture was incubated at 25°C for 60 minutes in the case of trypsin or for 20 minutes in other cases of enzymes. In this instance, a compound disclosed in JP-A-51-138642 was used as a Comparative Example 1, and a compound disclosed in JP-A-63-165357 as a Comparative Example 2.

The next assay relates to male rats of Wistar line. The assay is described as follows: caerulein-induced acute pancreatitis edema, prevention by oral administration. Format: in vivo. The settings on record: for Serum amylase / % Pancreas wt.: 15 minutes before caerulein (40 µg/kg i.p. twice); for Serum amylase: blood 6 hours after second caerulein; for % Pancreas wt.: pancreas wet weight to body weight, 6 hours after second caerulein. The protocol:
[…] Experiments were started at eight o'clock in the morning, with the animals in each group under satiation conditions. After measuring their body weights, caerulein pancreatitis was prepared by intraperitoneal administration of caerulein (mfd. by Kyowa Hakko K.K.) (40 μg/kg) twice at one hour interval. Six hours after the second administration, each rat was subjected to laparotomy to collect blood from the abdominal aorta and to excise the pancreas. […] Wet weight of the excised pancreas was measured and its ratio to the body weight was calculated. As a comparative example, the same process was repeated except that the inventive compound was replaced by the compound used in Pharmacological Trial 1 as Comparative Example 1, a compound which has been disclosed in JP-A-51-138642.

In a further assay the target is T1, trypsin (Bos taurus, UniProt P00760).
T1 sequence (P00760 24-246): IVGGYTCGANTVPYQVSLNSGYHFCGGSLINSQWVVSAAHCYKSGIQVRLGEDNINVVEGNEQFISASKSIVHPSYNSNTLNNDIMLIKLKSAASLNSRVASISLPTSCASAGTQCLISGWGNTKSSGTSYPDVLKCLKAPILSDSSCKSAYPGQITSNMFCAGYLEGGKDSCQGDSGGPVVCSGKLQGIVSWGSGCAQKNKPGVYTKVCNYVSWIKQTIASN
Briefly: in vitro trypsin inhibition, fluorogenic substrate benzoyl-Arg-7-amido-4-methylcoumalin. It counts as biochemical. To be noted: 0.2 M Tris-HCl, 0.02 M CaCl2, 0.005% Triton X-100, pH 8.0, 25°C, 60 minutes.
Source text: as §1, §2

For a further assay, the target named is factor Xa (Homo sapiens, UniProt P00742). The assay is described as follows: in vitro factor Xa inhibition, substrate Boc-Ile-Glu-Gly-Arg-7-amido-4-methylcoumalin. It counts as biochemical. To be noted: 0.2 M Tris-HCl, 0.02 M CaCl2, 0.005% Triton X-100, pH 8.0, 25°C, 20 minutes.
The target in another assay is thrombin (Homo sapiens, UniProt P00734). Briefly: in vitro thrombin inhibition, substrate Boc-Val-Pro-Arg-7-amido-4-methylcoumalin. It counts as biochemical. The settings on record: 0.2 M Tris-HCl, 0.02 M CaCl2, 0.005% Triton X-100, pH 8.0, 25°C, 20 minutes.
[1] abbreviates: 100 mg/kg oral, caerulein alone 817 ± 103.
[2] abbreviates: 100 mg/kg oral, caerulein alone 0.88 ± 0.07.
[3] abbreviates: 0.2 M Tris-HCl, 0.02 M CaCl2, 0.005% Triton X-100, pH 8.0, 25°C, 20 minutes.

A word on the IC50: it is the point on the concentration scale where inhibition reaches its midpoint. A higher IC50 goes with weaker potency.

The structures appear in SMILES notation. Where a name gives a salt, the structure may show the parent alone. Read-outs that look alike come from different tables or passages of the source.

Sequence of factor Xa (P00742 235-488 limits assumed): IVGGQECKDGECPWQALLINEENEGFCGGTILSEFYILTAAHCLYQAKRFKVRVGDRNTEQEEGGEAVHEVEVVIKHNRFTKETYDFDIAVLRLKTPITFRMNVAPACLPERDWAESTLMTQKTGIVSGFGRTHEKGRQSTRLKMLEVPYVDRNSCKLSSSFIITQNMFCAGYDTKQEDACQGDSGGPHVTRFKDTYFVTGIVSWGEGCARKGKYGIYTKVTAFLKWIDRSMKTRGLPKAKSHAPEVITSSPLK
Sequence of factor Xa (P00742 41-179 partner limits assumed): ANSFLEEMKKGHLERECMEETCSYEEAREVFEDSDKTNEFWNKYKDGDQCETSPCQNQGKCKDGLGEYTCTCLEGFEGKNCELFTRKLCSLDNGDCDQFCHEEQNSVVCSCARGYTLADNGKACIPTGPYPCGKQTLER
Sequence of plasmin (P00747 581-810 limits assumed, species assumed): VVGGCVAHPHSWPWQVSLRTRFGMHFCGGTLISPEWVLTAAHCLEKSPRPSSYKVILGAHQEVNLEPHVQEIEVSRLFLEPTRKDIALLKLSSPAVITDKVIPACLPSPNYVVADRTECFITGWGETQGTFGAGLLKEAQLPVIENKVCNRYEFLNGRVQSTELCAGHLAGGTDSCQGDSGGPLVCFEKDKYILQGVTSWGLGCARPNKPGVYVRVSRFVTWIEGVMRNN
Sequence of plasmin (P00747 97-580 partner limits assumed, species assumed): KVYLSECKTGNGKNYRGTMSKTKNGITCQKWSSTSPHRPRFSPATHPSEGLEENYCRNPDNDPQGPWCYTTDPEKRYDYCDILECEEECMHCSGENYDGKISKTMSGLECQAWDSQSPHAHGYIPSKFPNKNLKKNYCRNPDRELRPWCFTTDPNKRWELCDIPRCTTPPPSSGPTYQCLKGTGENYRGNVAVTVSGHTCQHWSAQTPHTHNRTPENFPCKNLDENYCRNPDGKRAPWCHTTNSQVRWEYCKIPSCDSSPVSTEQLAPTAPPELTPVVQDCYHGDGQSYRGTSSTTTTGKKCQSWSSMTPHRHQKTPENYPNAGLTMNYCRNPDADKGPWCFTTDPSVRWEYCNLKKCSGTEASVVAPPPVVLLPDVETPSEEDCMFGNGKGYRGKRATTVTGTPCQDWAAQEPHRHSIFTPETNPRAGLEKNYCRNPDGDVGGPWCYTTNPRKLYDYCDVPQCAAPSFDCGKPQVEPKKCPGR

Regarding `CN(C)C(=O)COC(=O)Cc1ccc(OC(=O)c2ccc(NC(=N)N)cc2)cc1` [Comp. Ex. 1, reference compound], the IC50 was determined as 120 nM on plasmin, 25 nM against trypsin and 56000 nM at factor Xa. The compound further came in with a Serum amylase in the assay with male rats of Wistar line (setting [1]) of 216 ± 7 IU/ml. In addition, in the assay with male rats of Wistar line (setting [2]), the “% Pancreas wt.” value was 0.47 ± 0.09%. For the same compound, the “histological observation of the pancreas (pancreatitis-specific signs)” value with male rats of Wistar line (rat group of 100 mg oral administration, caerulein pancreatitis) is “decrease in the pancreatitis-specific signs, but the reducing effects were inferior to those of Compound 39”.
With `N=C(N)Nc1ccc(C(=O)Oc2cc(Cl)cc(Cl)c2)cc1` [Comp. Ex. 2, reference compound], the IC50 against plasmin (setting [3]) came to 90 nM; against thrombin, 880 nM; against trypsin, 9.5 nM; against factor Xa, 8500 nM.
With `N=C(N)Nc1ccc(C(=O)Oc2cccc(OC(F)(F)F)c2)cc1` [Compound 2, 3-trifluoromethoxyphenyl 4-guanidinobenzoate], the IC50 against plasmin (setting [3]) was determined as 43 nM; at thrombin, 77 nM; on trypsin it was 0.17 nM; at factor Xa, 430 nM.
Taken in the same sequence, the figures for `N=C(N)Nc1ccc(C(=O)Oc2ccc(OC(F)(F)F)cc2)cc1` [Compound 3, 4-trifluoromethoxyphenyl 4-guanidinobenzoate] were 18 nM, 39 nM, 0.84 nM and 440 nM.
For `CON=C(C)c1cccc(OC(=O)c2ccc(NC(=N)N)cc2)c1` [Compound 10, 3-(1-methoxyiminoethyl)phenyl 4-guanidinobenzoate], the IC50 at plasmin (setting [3]) is 63 nM; against thrombin, 140 nM; against trypsin it was 0.52 nM; against factor Xa, 2500 nM.
As to `CC1(C(=O)Oc2cc(Cl)cc(OC(=O)c3ccc(NC(=N)N)cc3)c2)CC1` [Compound 26, 3-chloro-5-(1-methylcyclopropylcarbonyloxy)phenyl 4-guanidinobenzoate methanesulfonic acid salt], the IC50 against plasmin (setting [3]) amounted to 15 nM; against thrombin it was 69 nM; at trypsin, 0.25 nM; on factor Xa it was 340 nM.
`N=C(N)Nc1ccc(C(=O)Oc2cc(Cl)cc(OC(=O)C3CCCCC3)c2)cc1` [Compound 31, 3-chloro-5-cyclohexylcarbonyloxyphenyl 4-guanidinobenzoate]: the IC50 at plasmin (setting [3]) was 10 nM; at thrombin, 580 nM; at trypsin, 0.47 nM; at factor Xa it was 3600 nM.
Take `CS(=O)(=O)O.N=C(N)Nc1ccc(C(=O)Oc2cc(Cl)cc(OS(=O)(=O)C=Cc3ccccc3)c2)cc1` [Compound 39, 3-chloro-5-(β-styrenesulfonyloxy)phenyl 4-guanidinobenzoate methanesulfonic acid salt]: the IC50 amounted to 12 nM on plasmin (setting [3]), 21 nM against thrombin, 0.36 nM against trypsin and 160 nM on factor Xa. In addition, the Serum amylase in the assay on male rats of Wistar line (10 mg/kg oral, caerulein alone 817 ± 103, no treatment 134 ± 11) was determined as 556 ± 31 IU/ml; in the assay on male rats of Wistar line (50 mg/kg oral, caerulein alone 817 ± 103), 362 ± 15 IU/ml; in the assay on male rats of Wistar line (setting [1]), 99 ± 17 IU/ml. Also, the “% Pancreas wt.” value in the assay with male rats of Wistar line (10 mg/kg oral, caerulein alone 0.88 ± 0.07, no treatment 0.38 ± 0.06) is given as 0.99 ± 0.16%; in the assay with male rats of Wistar line (50 mg/kg oral, caerulein alone 0.88 ± 0.07) it was 0.66 ± 0.04%; in the assay with male rats of Wistar line (setting [2]), 0.39 ± 0.06%. The “histological observation of the pancreas” value in the assay with male rats of Wistar line (rat groups of 10, 50 and 100 mg oral doses, caerulein pancreatitis) was “no evident appearance of vacuoles inside the acinic cells, and the appearance of interstitial edema was almost negligible”.
